Legend:
DHp-CA^R656A = biological target: T1, DHp-CA^R656A (Xanthomonas campestris pv. campestris, UniProt Q8P9A6, R656A); assay: microscale thermophoresis (MST) binding; details: compared with DHp-CA protein
T1 sequence (Q8P9A6 464-697 R656A): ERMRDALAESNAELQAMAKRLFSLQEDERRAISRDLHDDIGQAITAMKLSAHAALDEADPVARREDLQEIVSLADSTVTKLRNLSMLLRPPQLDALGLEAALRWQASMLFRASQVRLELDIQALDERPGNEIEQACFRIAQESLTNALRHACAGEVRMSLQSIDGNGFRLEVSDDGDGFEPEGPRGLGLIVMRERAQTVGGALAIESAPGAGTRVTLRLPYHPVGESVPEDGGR
Description: (§1) Fig 6 Arg^656 in the CA domain of RavS is a key residue for c-di-GMP binding. (a, b) c-di-GMP binds to the DHp-CA domain of RavS. PAS-A, PAS-B and DHp-CA in (a), and DHp and CA domains of RavS in (b), were purified and the interaction with c-di-GMP was measured by MST. Each assay was repeated three times. Standard deviations are shown. (c) Molecular docking model of the interaction between c-di-GMP and DHp-CA of RavS. c-di-GMP is shown as a ball-and-stick model and DHp-CA is shown in ribbon representation. (d) Schematic view of the predicted docking site between c-di-GMP and DHp-CA. Potential hydrogen bonds are indicated as blue dashed lines. Autodock software was used to predict the interaction. (e) Effect of amino acid substitutions on RavS–c-di-GMP binding. Ten recombinant proteins of the DHp-CA region, each containing a substitution of a putative essential residue involved in c-di-GMP binding, were used in the MST assay to quantify the Kd value of RavS–c-di-GMP binding. fl-c-di-GMP was used in the MST assay. Each experiment was repeated three times. […] The reactions were terminated with 5× SDS loading buffer and the products were separated by 12% SDS-PAGE, exposed to a phosphor screen and analysed by Typhoon FLA7000. […]
(§2) The interaction between c-di-GMP nucleotides and various proteins was measured by using MST with a fluorescein-labelled c-di-GMP (2′-Fluo-AHC-c-di-GMP, abbreviated as fl-c-di-GMP; 2′-Fluo-AHC-c-di-AMP, fl-c-di-AMP; 2′-Fluo-AHC-cGMP, fl-cGMP; Biolog, Germany). These chemicals contain carboxyfluorescein that has excitation and emission wavelengths of 497 nm and 520 nm, respectively, which can be detected directly by a MST instrument. […] Fluorescence intensity due to thermophoresis was recorded using the blue channel optics of the instrument (λex = 470 ± 15 nm, λem = 520 ± 10 nm) during a 30 s period of infrared laser heating at 80% of the maximum laser power, followed by a 5 s cooling period. […]

DHp-CA domain of RavS = DHp-CA domain of RavS (Xanthomonas campestris pv. campestris, UniProt Q8P9A6); assay: microscale thermophoresis (MST) binding; details: read-out: dissociation constant (Kd)
Description: as §1, §2

## Nc1nc2c(ncn2[C@@H]2O[C@@H]3COP(=O)(O)O[C@H]4[C@@H](O)[C@H](n5cnc6c(=O)[nH]c(N)nc65)O[C@@H]4COP(=O)(O)O[C@H]3[C@H]2O)c(=O)[nH]1 [c-di-GMP, Cyclic di-GMP]
DHp-CA^R656A
  fold decrease in binding affinity: 10 fold

## Nc1nc2c(ncn2[C@@H]2O[C@@H]3COP(=O)(O)O[C@H]4[C@@H](OC(=O)NCCCCCCNC(=O)c5ccc6c(c5)C(=O)OC65c6ccc(O)cc6Oc6cc(O)ccc65)[C@H](n5cnc6c(=O)[nH]c(N)nc65)O[C@@H]4COP(=O)(O)O[C@H]3[C@H]2O)c(=O)[nH]1 [fl-c-di-GMP, 2′-Fluo-AHC-c-di-GMP]
DHp-CA domain of RavS
  Kd: 6.25 ± 0.8 µM

From paper PMC6707612, “Cyclic-di-GMP binds to histidine kinase RavS to control RavS-RavR phosphotransfer and regulates the bacterial lifestyle transition between virulence and swimming” (PLoS Pathogens, 2019)
